Measurements: patent publication US9783552B2, “Soluble guanylate cyclase activators” (MERCK SHARP & DOHME CORP., priority 2013, dated 2017)
pEC50: −log10 of the molar value.

Target: T1, sGC α1/β1 heterodimer (Homo sapiens, UniProt Q02108+Q02153)
T1 construct: expressed in transfected cells
T1 sequence (Q02108 1-690): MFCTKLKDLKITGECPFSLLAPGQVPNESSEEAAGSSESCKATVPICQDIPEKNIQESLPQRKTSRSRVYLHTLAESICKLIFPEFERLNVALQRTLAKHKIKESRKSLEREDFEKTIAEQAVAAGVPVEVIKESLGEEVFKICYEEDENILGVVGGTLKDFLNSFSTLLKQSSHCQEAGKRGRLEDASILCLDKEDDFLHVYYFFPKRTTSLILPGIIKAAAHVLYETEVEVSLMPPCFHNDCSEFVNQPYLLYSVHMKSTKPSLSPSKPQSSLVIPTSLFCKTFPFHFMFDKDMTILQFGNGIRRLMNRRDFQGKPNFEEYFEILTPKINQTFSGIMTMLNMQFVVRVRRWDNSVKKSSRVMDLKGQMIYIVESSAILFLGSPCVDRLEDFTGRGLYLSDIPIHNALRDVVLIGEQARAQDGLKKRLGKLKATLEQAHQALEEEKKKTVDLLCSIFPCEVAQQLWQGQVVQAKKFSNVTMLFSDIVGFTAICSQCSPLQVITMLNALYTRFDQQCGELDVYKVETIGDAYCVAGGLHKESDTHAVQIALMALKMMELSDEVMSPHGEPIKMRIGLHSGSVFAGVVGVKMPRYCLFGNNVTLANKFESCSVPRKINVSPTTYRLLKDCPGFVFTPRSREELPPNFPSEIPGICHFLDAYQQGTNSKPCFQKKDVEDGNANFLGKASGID
T1 sequence (Q02153 1-619): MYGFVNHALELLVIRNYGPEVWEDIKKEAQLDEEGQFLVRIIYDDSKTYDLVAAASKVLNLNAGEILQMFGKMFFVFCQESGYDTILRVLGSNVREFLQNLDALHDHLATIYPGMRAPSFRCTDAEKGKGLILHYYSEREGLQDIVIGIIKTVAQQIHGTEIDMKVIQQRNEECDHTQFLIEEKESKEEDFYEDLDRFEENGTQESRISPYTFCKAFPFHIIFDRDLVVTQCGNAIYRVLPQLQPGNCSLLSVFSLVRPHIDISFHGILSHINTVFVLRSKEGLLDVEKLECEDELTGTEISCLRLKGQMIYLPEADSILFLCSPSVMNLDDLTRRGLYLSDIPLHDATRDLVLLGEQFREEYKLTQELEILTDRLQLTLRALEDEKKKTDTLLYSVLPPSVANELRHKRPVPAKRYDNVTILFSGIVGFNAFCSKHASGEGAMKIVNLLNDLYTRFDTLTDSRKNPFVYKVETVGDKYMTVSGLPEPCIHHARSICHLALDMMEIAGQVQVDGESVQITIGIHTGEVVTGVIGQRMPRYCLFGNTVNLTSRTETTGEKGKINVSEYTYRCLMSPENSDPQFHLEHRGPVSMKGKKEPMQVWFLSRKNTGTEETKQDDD
Experiment: Cell-Based sGC Functional Assay (CASA Assay)
Conditions: CHO-K1/sGC cells; for pEC50: intracellular cGMP by HTRF, 1 hr at 37° C., IP from 4P fit, presence or absence of 1 μM DETA-NO not given; for Emax: cGMP as percentage of maximum cGMP production of Compound A (=100% activation), read-out: % ACT (percent activation)
From the text: Biological Assays: Cell-Based sGC Functional Assay (CASA Assay)
sGC is a heme-containing enzyme that converts GTP to secondary messenger cGMP. Increases in cGMP levels affect several physiological processes including vasorelaxation through multiple downstream pathways. […] Heme-dependent activators (HDAs) preferentially activate sGC containing a ferrous heme group. To determine the effect of sGC activators on enzyme activity, the CASA assay was developed to monitor the generation of cGMP in a cell line that stably expresses the heterodimeric sGC protein.
A CHO-K1 cell line stably expressing the sGC α1/β1 heterodimer was generated using a standard transfection protocol. CHO-K1 cells were transfected with plasmids pIREShyghsGCα1 and pIRESneo-hsGCβ1 simultaneously using FUGENE reagent. Clones that stably express both subunits were selected with hygromycin and neomycin for ˜2 weeks. Clone #7 was chosen for the assay and was designated CHO-K1/sGC. CHO-K1/sGC cells were maintained in F-K12 medium containing 10% heat-inactivated Fetal Bovine Serum (FBS), 100 μg/mL penicillin/streptomycin, 0.5 mg/mL hygromycin and 0.25 mg/mL G418. The cells were then cryopreserved in LN2. On the day of the assay, cells were thawed and resuspended in EBSS Assay Buffer (EAB, Sigma, E3024) supplemented with 5 mM MgCl2, 10 mM HEPES (4-(2-hydroxyethyl)piperazine-1-ethanesulfonic acid) and 0.05% BSA (bovine serum albumin) and cell density was then adjusted to 4×10^5/mL with EAB. IBMX (3-isobutyl-1-methylxanthin, 0.5 mM) was added to inhibit degradation of cGMP. Compounds were diluted from DMSO stock solutions and added to the assay at a final DMSO concentration of 2.5%. Cells were incubated with compounds in the presence and absence of 1 μM of Diethylenetriamine/nitric oxide adduct (DETA-NO; Sigma, 17018) for 1 hr at 37° C. At the end of the incubation period, the reaction was terminated and the cells were lysed with the detection reagents from Cisbio Kits. The level of intracellular cGMP was determined using an HTRF-based assay kit (CisBio, 62GM2PEC), which detects the displacement of a fluorescence labeled cGMP from its specific antibody. The cGMP produced by test compounds was directly compared to the maximum cGMP production (this value was set to equal 100% activation) of the published sGC-HDA Compound A:
[drawing 123] (Example 1 in WO 2010/065275, published Jun. 10, 2010). The test compounds' activity was then expressed as a percentage of Compound A, the standard in every experiment. This percent activation was calculated either in the presence or absence of DETA-NO which was then plotted. IP and maximum fold induction was derived using ADA analysis software for 4P fit.

Cn1ncc2c(-c3nc(N)c4c(n3)NC(=O)C4(C)c3ccccc3)nc(CCCC(F)(F)F)nc21 (single isomer, unassigned) [Example 3, 4-Amino-5-methyl-2-(1-methyl-6-(4,4,4-trifluorobutyl)-1H-pyrazolo[3,4-d]pyrimidin-4-yl)-5-phenyl-5H-pyrrolo[2,3-d]pyrimidin-6(7H)-one] gave a pEC50 of 6.92 and an Emax of 132%.
Cn1ncc2c(-c3nc(N)c4c(n3)NC(=O)C4(C)c3ccc(F)cc3)nc(CC3CC(F)(F)C3)nc21 (single isomer, unassigned) [Example 5, 4-Amino-2-(6-((3,3-difluorocyclobutyl)methyl)-1-methyl-1H-pyrazolo[3,4-d]pyrimidin-4-yl)-5-(4-fluorophenyl)-5-methyl-5H-pyrrolo[2,3-d]pyrimidin-6(7H)-one] showed a pEC50 of 7.28 and an Emax of 122%.
CC1(c2ccc(F)cc2)C(=O)Nc2nc(-c3nc(CCC(F)(F)C(F)(F)F)nc4[nH]ncc34)nc(N)c21 (single isomer, unassigned) [Example 8, 4-Amino-5-(4-fluorophenyl)-5-methyl-2-(6-(3,3,4,4,4-pentafluorobutyl)-1H-pyrazolo[3,4-d]pyrimidin-4-yl)-5H-pyrrolo[2,3-d]pyrimidin-6(7H)-one] showed a pEC50 of 6.47 and an Emax of 109%.
With Cn1ncc2c(-c3nc(N)c4c(n3)NC(=O)C4(C)c3ccc(Br)cc3)nc(CCC(F)(F)C(F)(F)F)nc21 (single isomer, unassigned) [Example 10, 4-Amino-5-(4-bromophenyl)-5-methyl-2-(1-methyl-6-(3,3,4,4,4-pentafluorobutyl)-1H-pyrazolo[3,4-d]pyrimidin-4-yl)-5H-pyrrolo[2,3-d]pyrimidin-6(7H)-one] the pEC50 was 6.71 and the Emax was 116%.
For Cn1ncc2c(-c3nc(N)c4c(n3)NC(=O)C4(C)c3ccc(F)cc3)nc(CCC(F)(F)F)nc21 (single isomer, unassigned) [Example 11, 4-Amino-5-(4-fluorophenyl)-5-methyl-2-(1-methyl-6-(3,3,3-trifluoropropyl)-1H-pyrazolo[3,4-d]pyrimidin-4-yl)-5H-pyrrolo[2,3-d]pyrimidin-6(7H)-one], the pEC50 was 6.84 and the Emax was 121%.
In the case of [2H]C([2H])([2H])n1ncc2c(-c3nc(N)c4c(n3)NC(=O)C4(C)c3ccccc3)nc(CCC(F)(F)C(F)(F)F)nc21 (single isomer, unassigned) [Example 13, 4-Amino-5-methyl-2-(6-(3,3,4,4,4-pentafluorobutyl)-1-trideuteriomethyl-1H-pyrazolo[3,4-d]pyrimidin-4-yl)-5-phenyl-5H-pyrrolo[2,3-d]pyrimidin-6(7H)-one], the pEC50 was 7.40 and the Emax was 101%.
In the case of [2H]C([2H])([2H])n1ncc2c(-c3nc(N)c4c(n3)NC(=O)C4(C)c3cccc(OC)c3)nc(CCC(F)(F)C(F)(F)F)nc21 (single isomer, unassigned) [Example 14, 4-Amino-5-(3-methoxyphenyl)-5-methyl-2-(6-(3,3,4,4,4-pentafluorobutyl)-1-trideuteriomethyl-1H-pyrazolo[3,4-d]pyrimidin-4-yl)-5H-pyrrolo[2,3-d]pyrimidin-6(7H)-one], the pEC50 was 7.68 and the Emax was 110%.
In the case of COc1ccc(C2(C)C(=O)Nc3nc(-c4nc(CCCC(F)(F)F)nc5c4cnn5C)nc(N)c32)cc1F (single isomer, unassigned) [Example 15, 4-Amino-5-(3-fluoro-4-methoxyphenyl)-5-methyl-2-(1-methyl-6-(4,4,4-trifluorobutyl)-1H-pyrazolo[3,4-d]pyrimidin-4-yl)-5H-pyrrolo[2,3-d]pyrimidin-6(7H)-one], the pEC50 was 7.28 and the Emax was 113%.
With COc1ccc(C2(C)C(=O)Nc3nc(-c4nc(CCC(F)(F)C(F)(F)F)nc5c4cnn5C)nc(N)c32)cc1F (single isomer, unassigned) [Example 16, 4-Amino-5-(3-fluoro-4-methoxyphenyl)-5-methyl-2-(1-methyl-6-(3,3,4,4,4-pentafluorobutyl)-1H-pyrazolo[3,4-d]pyrimidin-4-yl)-5H-pyrrolo[2,3-d]pyrimidin-6(7H)-one] the pEC50 was 7.82 and the Emax was 112%.
In the case of [2H]C([2H])([2H])n1ncc2c(-c3nc(N)c4c(n3)NC(=O)C4(C)C3CC3)nc(CCC(F)(F)C(F)(F)F)nc21 (single isomer, unassigned) [Example 17, 4-Amino-5-cyclopropyl-5-methyl-2-(6-(3,3,4,4,4-pentafluorobutyl)-1-trideuteriomethyl-1H-pyrazolo[3,4-d]pyrimidin-4-yl)-5H-pyrrolo[2,3-d]pyrimidin-6(7H)-one], the pEC50 was 6.54 and the Emax was 104%.
In the case of Cn1ncc2c(-c3nc(N)c4c(n3)NC(=O)C4(C)C3CCCCC3)nc(CCC(F)(F)C(F)(F)F)nc21 (single isomer, unassigned) [Example 18, 4-Amino-5-cyclohexyl-5-methyl-2-(1-methyl-6-(3,3,4,4,4-pentafluorobutyl)-1H-pyrazolo[3,4-d]pyrimidin-4-yl)-5H-pyrrolo[2,3-d]pyrimidin-6(7H)-one], the pEC50 was 6.77 and the Emax was 122%.
CCn1ncc2c(-c3nc(N)c4c(n3)NC(=O)C4(C)c3ccc(F)cc3)nc(CCC(F)(F)C(F)(F)F)nc21 (single isomer, unassigned) [Example 19, 4-Amino-2-(1-ethyl-6-(3,3,4,4,4-pentafluorobutyl)-1H-pyrazolo[3,4-d]pyrimidin-4-yl)-5-(4-fluorophenyl)-5-methyl-5H-pyrrolo[2,3-d]pyrimidin-6(7H)-one] gave a pEC50 of 7.28 and an Emax of 119%.
In the case of CCn1ncc2c(-c3nc(N)c4c(n3)NC(=O)C4(C)c3ccc(F)cc3)nc(CCCC(F)(F)F)nc21 (single isomer, unassigned) [Example 20, 4-Amino-2-(1-ethyl-6-(4,4,4-trifluorobutyl)-1H-pyrazolo[3,4-d]pyrimidin-4-yl)-5-(4-fluorophenyl)-5-methyl-5H-pyrrolo[2,3-d]pyrimidin-6(7H)-one], the pEC50 was 6.84 and the Emax was 123%.
In the case of C#CC1(C)C(=O)Nc2nc(-c3nc(CCC(F)(F)C(F)(F)F)nc4c3cnn4C)nc(N)c21 (single isomer, unassigned) [Example 21, 4-Amino-5-ethynyl-5-methyl-2-(1-methyl-6-(3,3,4,4,4-pentafluorobutyl)-1H-pyrazolo[3,4-d]pyrimidin-4-yl)-5H-pyrrolo[2,3-d]pyrimidin-6(7H)-one], the pEC50 was 7.04 and the Emax was 106%.
